Test [1] concerns the target BDNF/NT-3 growth factors receptor (Homo sapiens) (UniProt Q16620). The test is described as follows: Selectivity interaction (Upstate Kinase Profiler service (Millipore)) EUB0000056c NTRK2. As to conditions: at 1 µM.
Test [2] addresses Serine/threonine-protein kinase WNK1 (Homo sapiens) (UniProt Q9H4A3). The test is described as follows: Selectivity interaction (Kinase panel (DSF assay)) EUB0001558a WNK1. Background: DSF heats the sample and reads unfolding from a dye or from intrinsic fluorescence.
For test [3], the target named is Phosphatidylinositol 4-kinase beta (Homo sapiens, UniProt Q9UBF8). The test is described as follows: Selectivity interaction (KinomeScan (DiscoverX)) EUB0001049a PI4KB. As to conditions: at 1 µM.
The target in test [4] is Homeodomain-interacting protein kinase 2 (Homo sapiens, UniProt Q9H2X6). The test is described as follows: Selectivity interaction (KinomeScan (DiscoverX)) EUB0001049a HIPK2. Conditions: at 1 µM.
Test [5] has as its target T1, Non-receptor tyrosine-protein kinase TNK1 (Homo sapiens) (UniProt Q13470).
T1 sequence (whole entry): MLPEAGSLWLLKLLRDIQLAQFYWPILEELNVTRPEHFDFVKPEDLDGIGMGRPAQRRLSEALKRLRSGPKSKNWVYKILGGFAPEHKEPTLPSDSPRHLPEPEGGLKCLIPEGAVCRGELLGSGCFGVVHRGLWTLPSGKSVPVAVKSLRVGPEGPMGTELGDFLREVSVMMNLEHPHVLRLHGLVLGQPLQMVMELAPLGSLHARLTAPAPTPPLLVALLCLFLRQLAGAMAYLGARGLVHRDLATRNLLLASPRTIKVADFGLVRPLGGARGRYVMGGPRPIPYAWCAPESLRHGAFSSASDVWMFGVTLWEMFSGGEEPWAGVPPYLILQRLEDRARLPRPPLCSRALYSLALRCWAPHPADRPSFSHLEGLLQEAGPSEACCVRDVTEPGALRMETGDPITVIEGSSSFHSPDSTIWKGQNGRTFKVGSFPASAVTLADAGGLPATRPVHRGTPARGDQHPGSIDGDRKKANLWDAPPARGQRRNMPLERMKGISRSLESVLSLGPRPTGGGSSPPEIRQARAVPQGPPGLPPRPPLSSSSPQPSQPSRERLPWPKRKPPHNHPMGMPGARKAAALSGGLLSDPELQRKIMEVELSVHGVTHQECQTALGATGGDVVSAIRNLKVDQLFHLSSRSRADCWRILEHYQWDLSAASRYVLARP
The test is described as follows: Selectivity interaction (KinomeScan (DiscoverX)) EUB0001049a TNK1. As to conditions: at 1 µM.

Test [6] has as its target T2, Aurora kinase A (Homo sapiens) (UniProt O14965).
T2 sequence (whole entry): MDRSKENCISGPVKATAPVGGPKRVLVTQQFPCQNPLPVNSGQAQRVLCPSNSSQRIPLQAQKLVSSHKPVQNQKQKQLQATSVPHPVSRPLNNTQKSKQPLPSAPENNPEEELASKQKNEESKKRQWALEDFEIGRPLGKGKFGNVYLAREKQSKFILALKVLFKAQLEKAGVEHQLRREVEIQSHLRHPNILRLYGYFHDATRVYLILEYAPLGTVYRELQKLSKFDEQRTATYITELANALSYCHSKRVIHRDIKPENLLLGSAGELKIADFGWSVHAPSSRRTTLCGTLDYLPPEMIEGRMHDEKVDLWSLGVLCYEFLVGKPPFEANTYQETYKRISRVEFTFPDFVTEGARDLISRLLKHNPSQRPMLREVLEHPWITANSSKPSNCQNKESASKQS
The test is described as follows: Selectivity interaction (KinomeScan (DiscoverX)) EUB0000655a STK6. As to conditions: at 10 µM.

The target of test [7] is T3, Ephrin type-B receptor 4 (Homo sapiens) (UniProt P54760).
T3 sequence (whole entry): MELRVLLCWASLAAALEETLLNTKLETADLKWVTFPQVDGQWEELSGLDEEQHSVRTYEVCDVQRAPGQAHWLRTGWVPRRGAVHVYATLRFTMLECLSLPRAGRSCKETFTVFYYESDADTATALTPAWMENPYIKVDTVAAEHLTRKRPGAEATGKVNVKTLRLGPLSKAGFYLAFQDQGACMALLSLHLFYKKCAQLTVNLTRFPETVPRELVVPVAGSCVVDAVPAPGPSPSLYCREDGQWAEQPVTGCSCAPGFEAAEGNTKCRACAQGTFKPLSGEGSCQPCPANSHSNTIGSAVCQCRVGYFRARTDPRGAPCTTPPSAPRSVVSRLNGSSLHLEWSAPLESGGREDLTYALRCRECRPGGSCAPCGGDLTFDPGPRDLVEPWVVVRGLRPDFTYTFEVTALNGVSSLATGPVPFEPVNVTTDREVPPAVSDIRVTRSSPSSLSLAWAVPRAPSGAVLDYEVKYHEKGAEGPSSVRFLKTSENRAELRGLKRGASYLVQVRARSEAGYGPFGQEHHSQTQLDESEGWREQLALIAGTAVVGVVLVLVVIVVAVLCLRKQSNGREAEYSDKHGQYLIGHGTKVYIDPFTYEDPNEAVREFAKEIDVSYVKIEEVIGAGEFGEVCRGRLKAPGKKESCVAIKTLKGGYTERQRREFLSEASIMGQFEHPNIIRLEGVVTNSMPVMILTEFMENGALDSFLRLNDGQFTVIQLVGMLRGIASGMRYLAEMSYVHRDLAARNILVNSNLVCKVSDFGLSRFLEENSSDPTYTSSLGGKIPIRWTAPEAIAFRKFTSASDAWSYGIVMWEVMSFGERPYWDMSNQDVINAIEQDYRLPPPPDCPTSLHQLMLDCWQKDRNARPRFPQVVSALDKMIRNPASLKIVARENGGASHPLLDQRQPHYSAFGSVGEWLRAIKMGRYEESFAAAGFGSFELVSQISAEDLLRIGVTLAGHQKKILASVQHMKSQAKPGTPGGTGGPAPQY
Description: Selectivity interaction (KinomeScan (DiscoverX)) EUB0000666a EPHB4. Conditions: at 10 µM.

In test [8] the target is Ribosomal protein S6 kinase alpha-6 (Homo sapiens, UniProt Q9UK32). Description: Selectivity interaction (KinomeScan (DiscoverX)) EUB0000666a RPS6KA6. As to conditions: at 10 µM.
The target in test [9] is cAMP-dependent protein kinase catalytic subunit beta (Homo sapiens) (UniProt P22694). The test is described as follows: Selectivity interaction (KinomeScan (DiscoverX)) EUB0000229b PRKACB. As to conditions: at 10 µM.
The target of test [10] is Macrophage-stimulating protein receptor (Homo sapiens, UniProt Q04912). The test is described as follows: Selectivity interaction (KinomeScan (DiscoverX)) EUB0000229b MST1R. As to conditions: at 10 µM.
For test [11], the target named is Protein kinase C delta type (Homo sapiens) (UniProt Q05655). The test is described as follows: Selectivity interaction (KinomeScan (DiscoverX)) EUB0000595a PRKCD. Conditions: at 10 µM.
Test [12] addresses Serine/threonine-protein kinase Chk2 (Homo sapiens) (UniProt O96017). Description: Selectivity interaction (Kinase panel (KiNativ target engagement assay in Jurkat cells)) EUB0001635a CHEK2. Conditions: at 1 µM. In kind it is cell-based.
The target of test [13] is T1, Non-receptor tyrosine-protein kinase TNK1 (Homo sapiens). Description: Selectivity interaction (KinomeScan (DiscoverX)) EUB0000618a TNK1. As to conditions: at 10 µM.

Each structure is given as a SMILES string.

Sequence of Serine/threonine-protein kinase Chk2 (Homo sapiens) (O96017 whole entry): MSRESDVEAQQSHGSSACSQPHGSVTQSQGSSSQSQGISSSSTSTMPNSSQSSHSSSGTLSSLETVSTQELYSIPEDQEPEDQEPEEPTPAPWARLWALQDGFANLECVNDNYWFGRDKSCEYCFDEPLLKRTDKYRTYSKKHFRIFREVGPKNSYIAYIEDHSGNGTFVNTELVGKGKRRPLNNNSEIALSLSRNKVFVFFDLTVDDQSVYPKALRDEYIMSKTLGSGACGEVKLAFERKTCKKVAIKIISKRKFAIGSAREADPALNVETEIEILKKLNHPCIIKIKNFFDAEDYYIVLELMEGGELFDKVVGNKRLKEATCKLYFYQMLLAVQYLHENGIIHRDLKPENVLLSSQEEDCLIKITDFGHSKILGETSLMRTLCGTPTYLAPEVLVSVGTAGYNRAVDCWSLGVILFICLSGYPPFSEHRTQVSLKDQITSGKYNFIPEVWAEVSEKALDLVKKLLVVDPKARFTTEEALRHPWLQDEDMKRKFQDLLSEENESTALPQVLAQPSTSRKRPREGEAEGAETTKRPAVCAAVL
Sequence of Serine/threonine-protein kinase WNK1 (Homo sapiens) (Q9H4A3 whole entry, looked up): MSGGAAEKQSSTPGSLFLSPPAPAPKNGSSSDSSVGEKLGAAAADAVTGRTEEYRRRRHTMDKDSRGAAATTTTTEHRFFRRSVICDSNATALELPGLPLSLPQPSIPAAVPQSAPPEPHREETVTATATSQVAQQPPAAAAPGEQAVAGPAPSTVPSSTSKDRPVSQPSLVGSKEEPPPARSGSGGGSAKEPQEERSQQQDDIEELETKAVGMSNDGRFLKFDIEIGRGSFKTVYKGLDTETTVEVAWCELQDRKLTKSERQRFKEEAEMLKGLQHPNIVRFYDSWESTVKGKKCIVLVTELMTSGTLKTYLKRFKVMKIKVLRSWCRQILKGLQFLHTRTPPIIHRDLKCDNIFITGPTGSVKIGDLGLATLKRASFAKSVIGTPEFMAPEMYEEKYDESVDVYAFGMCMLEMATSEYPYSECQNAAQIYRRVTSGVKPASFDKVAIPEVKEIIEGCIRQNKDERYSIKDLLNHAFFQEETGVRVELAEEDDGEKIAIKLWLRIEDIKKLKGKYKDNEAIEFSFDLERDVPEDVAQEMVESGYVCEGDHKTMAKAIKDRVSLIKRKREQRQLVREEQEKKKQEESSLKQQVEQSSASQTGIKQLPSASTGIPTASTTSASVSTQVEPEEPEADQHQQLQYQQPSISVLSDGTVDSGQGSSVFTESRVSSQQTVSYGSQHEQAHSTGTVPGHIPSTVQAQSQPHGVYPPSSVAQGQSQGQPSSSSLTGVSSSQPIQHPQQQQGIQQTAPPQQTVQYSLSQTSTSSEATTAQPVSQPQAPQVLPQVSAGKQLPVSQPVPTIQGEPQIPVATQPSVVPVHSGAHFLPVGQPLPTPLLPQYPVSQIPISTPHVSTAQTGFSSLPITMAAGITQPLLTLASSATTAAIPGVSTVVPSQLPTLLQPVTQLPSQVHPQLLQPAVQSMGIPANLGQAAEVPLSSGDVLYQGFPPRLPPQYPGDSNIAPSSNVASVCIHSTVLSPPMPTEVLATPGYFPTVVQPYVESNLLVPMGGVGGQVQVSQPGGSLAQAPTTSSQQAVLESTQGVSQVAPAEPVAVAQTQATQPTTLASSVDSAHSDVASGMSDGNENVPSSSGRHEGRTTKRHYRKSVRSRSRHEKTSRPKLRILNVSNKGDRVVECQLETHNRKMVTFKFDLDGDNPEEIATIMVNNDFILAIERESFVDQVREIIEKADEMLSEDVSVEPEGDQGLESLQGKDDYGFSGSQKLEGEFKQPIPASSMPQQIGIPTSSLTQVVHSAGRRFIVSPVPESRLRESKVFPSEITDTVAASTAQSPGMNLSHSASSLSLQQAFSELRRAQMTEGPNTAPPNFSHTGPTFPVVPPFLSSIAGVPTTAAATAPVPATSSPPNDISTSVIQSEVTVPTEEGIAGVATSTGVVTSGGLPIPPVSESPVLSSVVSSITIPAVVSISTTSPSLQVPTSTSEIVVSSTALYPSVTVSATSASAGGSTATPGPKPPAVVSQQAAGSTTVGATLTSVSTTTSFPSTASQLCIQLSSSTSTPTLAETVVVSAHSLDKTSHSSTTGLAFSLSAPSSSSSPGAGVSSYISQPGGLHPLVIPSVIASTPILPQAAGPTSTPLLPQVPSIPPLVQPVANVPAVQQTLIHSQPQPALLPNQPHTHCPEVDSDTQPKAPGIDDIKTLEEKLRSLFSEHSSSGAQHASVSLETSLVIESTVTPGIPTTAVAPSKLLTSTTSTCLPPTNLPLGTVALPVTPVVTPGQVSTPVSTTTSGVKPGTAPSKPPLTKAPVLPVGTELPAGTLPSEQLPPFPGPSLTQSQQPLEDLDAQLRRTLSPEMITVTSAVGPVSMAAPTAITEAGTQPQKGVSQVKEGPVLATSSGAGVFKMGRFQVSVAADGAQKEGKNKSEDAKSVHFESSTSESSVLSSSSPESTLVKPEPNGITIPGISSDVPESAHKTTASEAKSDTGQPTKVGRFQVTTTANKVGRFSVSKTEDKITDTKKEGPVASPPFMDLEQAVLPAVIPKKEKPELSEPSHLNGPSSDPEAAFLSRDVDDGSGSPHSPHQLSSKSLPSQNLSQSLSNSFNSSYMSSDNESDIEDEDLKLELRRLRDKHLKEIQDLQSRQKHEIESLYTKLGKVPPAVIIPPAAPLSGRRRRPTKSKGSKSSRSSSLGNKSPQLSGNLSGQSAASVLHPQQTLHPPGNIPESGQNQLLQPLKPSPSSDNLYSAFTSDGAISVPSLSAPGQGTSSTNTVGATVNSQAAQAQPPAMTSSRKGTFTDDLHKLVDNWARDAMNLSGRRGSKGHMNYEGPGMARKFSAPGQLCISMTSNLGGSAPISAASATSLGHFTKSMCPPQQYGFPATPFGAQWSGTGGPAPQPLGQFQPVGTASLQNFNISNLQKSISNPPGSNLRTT
Sequence of Homeodomain-interacting protein kinase 2 (Q9H2X6 whole entry, looked up): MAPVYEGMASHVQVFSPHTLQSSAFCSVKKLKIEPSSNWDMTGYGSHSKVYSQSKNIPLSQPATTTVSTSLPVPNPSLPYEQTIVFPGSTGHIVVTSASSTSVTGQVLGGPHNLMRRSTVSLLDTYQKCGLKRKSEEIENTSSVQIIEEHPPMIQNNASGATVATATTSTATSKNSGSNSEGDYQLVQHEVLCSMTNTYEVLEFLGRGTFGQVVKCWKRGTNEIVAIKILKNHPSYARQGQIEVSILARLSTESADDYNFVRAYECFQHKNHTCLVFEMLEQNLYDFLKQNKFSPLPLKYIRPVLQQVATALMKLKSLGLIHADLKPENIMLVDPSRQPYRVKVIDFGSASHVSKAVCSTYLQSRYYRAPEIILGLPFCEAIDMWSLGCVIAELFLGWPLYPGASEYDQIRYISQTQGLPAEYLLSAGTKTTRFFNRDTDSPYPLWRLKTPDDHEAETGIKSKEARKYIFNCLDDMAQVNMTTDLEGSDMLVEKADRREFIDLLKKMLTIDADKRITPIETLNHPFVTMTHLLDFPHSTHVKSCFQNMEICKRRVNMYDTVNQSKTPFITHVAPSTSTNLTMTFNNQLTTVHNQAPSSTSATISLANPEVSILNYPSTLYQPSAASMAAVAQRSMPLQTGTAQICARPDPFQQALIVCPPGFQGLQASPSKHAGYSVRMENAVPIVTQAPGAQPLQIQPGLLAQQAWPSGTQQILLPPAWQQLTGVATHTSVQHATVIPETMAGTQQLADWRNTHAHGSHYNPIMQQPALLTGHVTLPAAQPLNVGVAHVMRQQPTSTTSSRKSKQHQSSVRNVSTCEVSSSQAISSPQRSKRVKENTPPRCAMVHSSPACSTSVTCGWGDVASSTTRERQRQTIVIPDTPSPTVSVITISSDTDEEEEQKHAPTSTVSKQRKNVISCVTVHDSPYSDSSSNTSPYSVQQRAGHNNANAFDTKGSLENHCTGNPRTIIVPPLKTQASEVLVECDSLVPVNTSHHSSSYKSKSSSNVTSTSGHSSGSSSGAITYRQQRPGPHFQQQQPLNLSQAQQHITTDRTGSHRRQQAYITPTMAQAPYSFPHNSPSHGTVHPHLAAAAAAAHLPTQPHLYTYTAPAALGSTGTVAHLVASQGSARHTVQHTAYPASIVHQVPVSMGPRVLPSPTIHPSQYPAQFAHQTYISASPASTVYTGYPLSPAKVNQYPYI
Sequence of Phosphatidylinositol 4-kinase beta (Q9UBF8 2-816 limits assumed): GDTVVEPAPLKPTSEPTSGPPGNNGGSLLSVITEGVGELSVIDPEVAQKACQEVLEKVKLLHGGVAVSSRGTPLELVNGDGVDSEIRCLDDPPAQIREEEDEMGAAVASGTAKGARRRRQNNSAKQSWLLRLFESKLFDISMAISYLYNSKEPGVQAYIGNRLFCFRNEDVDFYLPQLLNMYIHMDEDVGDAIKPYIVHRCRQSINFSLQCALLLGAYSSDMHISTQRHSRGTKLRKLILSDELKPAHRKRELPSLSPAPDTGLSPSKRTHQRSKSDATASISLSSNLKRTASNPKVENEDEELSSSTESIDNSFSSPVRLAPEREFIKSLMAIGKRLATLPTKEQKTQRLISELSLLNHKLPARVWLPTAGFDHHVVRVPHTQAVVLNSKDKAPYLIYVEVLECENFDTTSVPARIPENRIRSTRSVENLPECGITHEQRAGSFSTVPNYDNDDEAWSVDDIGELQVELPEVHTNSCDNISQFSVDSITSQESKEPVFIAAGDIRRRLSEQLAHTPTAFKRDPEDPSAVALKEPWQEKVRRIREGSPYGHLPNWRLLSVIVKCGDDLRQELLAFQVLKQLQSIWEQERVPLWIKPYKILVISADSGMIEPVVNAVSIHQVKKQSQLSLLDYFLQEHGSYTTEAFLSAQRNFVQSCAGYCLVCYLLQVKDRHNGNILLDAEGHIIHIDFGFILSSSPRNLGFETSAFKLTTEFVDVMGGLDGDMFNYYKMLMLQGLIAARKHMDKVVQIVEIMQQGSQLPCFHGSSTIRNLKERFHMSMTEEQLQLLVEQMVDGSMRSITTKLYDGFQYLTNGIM

Turning to `Cc1ccc(-c2ccc3c(ccc4sc5c(c43)NC[C@@H](C)NC5=O)n2)cn1`, the % of inhibition in test [1] is -8%.

As for `CC(C)(O)[C@H](F)CN1Cc2cc(NC(=O)c3cnn4cccnc34)c(N3CCOCC3)cc2C1=O`, the dTM in [2] was -0.2 K.

As for `COc1cc(Nc2nc(C)cc(-c3cnn4nc(OC)ccc34)n2)cc(C(F)(F)F)c1`, the % of control in [3] worked out at 85%; in test [4] it was 94%; in test [5], 80%.

The molecule `CN(C)CCOc1ccc(-c2nc(-c3ccncc3)c(-c3ccc4c(c3)CC/C4=N\O)[nH]2)cc1` came in with a % of control in test [6] of 90%.

As for `O=C(NOC[C@H](O)CO)c1ccc(F)c(F)c1Nc1ccc(I)cc1F`, the % of control in test [7] came out at 100%; in [8] it was 80%.

For the molecule `COc1cc(N(C)c2ccnc3ccc(C(F)(F)F)cc23)cc(OC)c1OC`, the % binding was determined as 75% in test [9] and 82% in [10].

In test [11], `COCC(=O)NC/C=C/c1ccc2ncnc(Nc3ccc(Oc4ccc(C)nc4)c(C)c3)c2c1` [CP-724714] showed a % of control of 87%.

With `C=CC(=O)Nc1ccc(C(=O)Nc2[nH]nc3c2CN(C(=O)N[C@H](CN(C)C)c2ccccc2)C3(C)C)cc1`, the % of engagement came out at 5.2% in test [12] (Selectivity number of off-targets 0.0, Selectivity number of targets 233.0, Source Knowledge https://www.sciencedirect.com/science/article/pii/S2451945619300674?via%3Dihub) and 4.4% in [12].

Take `O[C@H]1CC[C@H](Nc2ncc3nc(Nc4c(F)cc(F)cc4F)n([C@H]4CCOC4)c3n2)CC1`: the % of control in test [13] turned out to be 97%.

The record behind these values is ChEMBL document CHEMBL5465560, “Selectivity Literature for EUbOPEN Chemogenomic Library” (2024).
